Experimental findings from patent publication US9976141B2, “Compositions and methods for inhibiting gene expression of Hif2alpha” (Arrowhead Madison Inc., priority 2015, dated 2018) are described below.

The test system of the data set is human (tumor) Hif2α (EPAS1) mRNA. Nature of the data set: Hif2α knockdown in orthotopic RCC tumor bearing mice, single injection of RNAi trigger-delivery polymer conjugate, RT-qPCR (Table 7). Format: in vivo. The note with it: single tail vein injection, relative to isotonic glucose. The gist of the method: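 A single intravenous dose of Hif2α RNAi trigger–delivery polymer conjugate, or isotonic glucose vehicle, was given to nude mice with subcapsular A498-SEAP renal tumours (about 5–6 weeks old). At the indicated time, tumour RNA was assayed by biplex TaqMan qPCR against CycA, and relative expression was calculated by ΔΔCT versus vehicle.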

The mark [1] stands for this setting: RNAi trigger 50 μg, polymer 064 125 μg.
The mark [2] stands for this setting: RNAi trigger 100 μg, polymer 064 250 μg.
The mark [3] stands for this setting: RNAi trigger 80 μg, polymer 126 400 μg.

In the case of “AD01654 (antisense TUUCAUGAAAUCGUUACGUTT; sense ACGUAACGAUUUCAUGAAA; Hif2alpha RNAi agent antisense strand; modified_base 2,4,6,8,10,13,14,16,18 /mod_base = “2′-deoxy-2′-fluoro corresponding nucleoside”; modified_base 3,5,7,9,11,12,15,17,19 /mod_base = “2′-O-methyl corresponding nucleoside”; modified_base 2,21 /mod_base = “5′-phosphorothioate corresponding nucleotide”; Hif2alpha RNAi agent sense strand; modified_base 1,3,5,8,9,11,13,15,17,19 /mod_base = “2′-deoxy-2′-fluoro corresponding nucleoside”; modified_base 2,4,6,7,10,12,14,16,18 /mod_base = “2′-O-methyl corresponding nucleoside”; modified_base 2 /mod_base = “5′-phosphorothioate corresponding nucleotide)”, the “Relative Expression day 4 (Hif2α mRNA in kidney tumor)” value (RNAi trigger 100 μg, polymer 100A 250 μg) is 0.185.
Consider “AD01404 (antisense TUUCAUGAAAUCGUUACGUCGGCUAU; sense UAUAUCGACGUAACGAUUUCAUGAAA; Hif2alpha RNAi agent antisense strand; modified_base 25 modified base = “2′-hydroxy corresponding nucleoside”; modified_base 2,4,6,10,12,14,16,18,20 /mod_base = “2′-deoxy-2′-fluoro corresponding nucleoside”; modified_base 3,5,7,9,11,13,15,17,19,21,22,23,24,26 /mod_base = “2′-O-methyl corresponding nucleoside”; modified_base 8 /mod_base = “2′-3′ seco corresponding nucleotide”; modified_base 2,3,23,; Hif2alpha RNAi agent sense strand; modified_base 2,4 modified base = “2′-hydroxy corresponding nucleoside”; modified_base 6,8,10,12,14,16,18,20,22,24,26 /mod_base = “2′-deoxy-2′-fluoro correspondi)”, for which, under “RNAi trigger 150 μg, polymer 100A 300 μg”, the “Relative Expression day 4 (Hif2α mRNA in kidney tumor)” value stood at 0.58.
In the case of “AD01884 (antisense UUUCAUGAAAUCGUUACGUTT; sense ACGUAACGAUUUCAUGAAAT; Hif2alpha RNAi agent antisense strand; modified_base 2,4,6,8,10,14,16,18 /mod_base = “2′-deoxy-2′-fluoro corresponding nucleoside”; modified_base 1,3,5,7,9,11,12,13,15,17,19 /mod_base = “2′-O-methyl corresponding nucleoside”; modified_base 2,3,21 /mod_base = “5′-phosphorothioate corresponding nucleotide”; Hif2alpha RNAi agent sense strand; modified_base 1,3,5,7,8,9,11,13,15,17,19 /mod_base = “2′-deoxy-2′-fluoro corresponding nucleoside”; modified_base 2,4,6,10,12,14,16,18 /mod_base = “2′-O-methyl corresponding nucleoside”; modified_base 20 /mod_base = “3′-3′-linked nucleotide”; modified_base)”, the “Relative Expression day 4 (Hif2α mRNA in kidney tumor)” value by setting is: under setting [1], 0.203; (RNAi trigger 75 μg, polymer 064 187.5 μg) 0.227; under setting [2], 0.091.
In the case of “AD01294 (antisense TUUCAUGAAAUCGUUACGUCGGCUGU; sense UAUAUCGACGUAACGAUUUCAUGAAA; Hif2alpha RNAi agent antisense strand; modified_base 25 modified base = “2′-hydroxy corresponding nucleoside”; modified_base 2,4,6,8,10,14,16,18,20 /mod_base = “2′-deoxy-2′-fluoro corresponding nucleoside”; modified_base 3,5,7,9,11,12,13,15,17,19,21,22,23,24,26 /mod_base = “2′-O-methyl corresponding nucleoside”; modified_base 2,3,23,24 /mod_base = “5′-phosphorothioate corresponding nucleotide”; Hif2alpha RNAi agent sense strand; modified_base 2,4 modified base = “2′-hydroxy corresponding nucleoside”; modified_base 6,8,10,12,14,15,16,18,20,22,24,26 /mod_base = “2′-deoxy-2′-fluoro correspondin)”, the “Relative Expression day 4 (Hif2α mRNA in kidney tumor)” value under setting [3] was determined as 0.17.
Still for that read-out and setting: to “AD01030 (antisense TUUCAUGAAAUCGUUACGUTT; sense ACGUAACGAUUUCAUGAAAT; Hif2alpha RNAi agent antisense strand; modified_base 2,4,6,8,10,12,14,16,18 /mod_base = “2′-deoxy-2′-fluoro corresponding nucleoside”; modified_base 3,5,9,11,13,15,17,19 /mod_base = “2′-O-methyl corresponding nucleoside”; modified_base 7 /mod_base = “2′-3′ seco corresponding nucleotide”; modified_base 21 /mod_base = “5′-phosphorothioate corresponding nucleotide”; Hif2alpha RNAi agent sense strand; modified_base 1,3,5,7,9,11,13,15,17,19 /mod_base = “2′-deoxy-2′-fluoro corresponding nucleoside”; modified_base 2,4,6,8,10,12,14,16,18 /mod_base = “2′-O-methyl corresponding nucleoside”; modified_b)” belongs 0.47.
Take “AD01886 (antisense UCUAGCAACAAAACCUUAATT; sense UUAAGGUUUUGUUGCUAGAT; Hif2alpha RNAi agent antisense strand; modified_base 2,4,6,8,10,13,14,16,18 /mod_base = “2′-deoxy-2′-fluoro corresponding nucleoside”; modified_base 1,3,5,7,9,11,12,15,17,19 /mod_base = “2′-O-methyl corresponding nucleoside”; modified_base 2,3,21 /mod_base = “5′-phosphorothioate corresponding nucleotide”; Hif2alpha RNAi agent sense strand; modified_base 1,3,5,8,9,11,13,15,17,19 /mod_base = “2′-deoxy-2′-fluoro corresponding nucleoside”; modified_base 2,4,6,7,10,12,14,16,18 /mod_base = “2′-O-methyl corresponding nucleoside”; modified_base 20 /mod_base = “3′-3′-linked nucleotide”; modified_base)”: under setting [2], the “Relative Expression day 4 (Hif2α mRNA in kidney tumor)” value is reported as 0.292.
For “AD02074 (antisense TUUCAUGAAAUCGUUACGUTT; sense ACGUAACGAUUUCAUGAAAT; Hif2alpha RNAi agent antisense strand; modified_base 2,4,6,8,10,14,16,18 /mod_base = “2′-deoxy-2′-fluoro corresponding nucleoside”; modified_base 3,5,7,9,11,12,13,15,17,19 /mod_base = “2′-O-methyl corresponding nucleoside”; modified_base 2,3,21 /mod_base = “5′-phosphorothioate corresponding nucleotide”; Hif2alpha RNAi agent sense strand; modified_base 1,3,5,7,8,9,11,13,15,17,19 /mod_base = “2′-deoxy-2′-fluoro corresponding nucleoside”; modified_base 2,4,6,10,12,14,16,18 /mod_base = “2′-O-methyl corresponding nucleoside”; modified_base 20 /mod_base = “3′-3′-linked nucleotide”; modified_base 1)”, under setting [1], the “Relative Expression day 4 (Hif2α mRNA in kidney tumor)” value is listed as 0.566.
Consider “AD01885 (antisense UUUCAUGAAAUCGUUACGUTT; sense UAUACGUAACGAUUUCAUGAAAT; Hif2alpha RNAi agent antisense strand; modified_base 2,4,6,8,10,14,16,18 /mod_base = “2′-deoxy-2′-fluoro corresponding nucleoside”; modified_base 1,3,5,7,9,11,12,13,15,17,19 /mod_base = “2′-O-methyl corresponding nucleoside”; modified_base 2,3,21 /mod_base = “5′-phosphorothioate corresponding nucleotide”; Hif2alpha RNAi agent sense strand; modified_base 2 modified base = “2′-hydroxy corresponding nucleoside”; modified_base 4,6,8,10,11,12,14,16,18,20,22 /mod_base = “2′-deoxy-2′-fluoro corresponding nucleoside”; modified_base 1,3,5,7,9,13,15,17,19,21 /mod_base = “2′-O-methyl corresponding nucl)”, for which, under setting [2], the “Relative Expression day 4 (Hif2α mRNA in kidney tumor)” value is given as 0.146.
